According to patent US7977308B2, “Lys-Thr dipeptides and their use” (Sederma, priority 2005, dated 2011):
Where no end group is shown, it is not given here. The star is where a group is joined. Palmitoyl = CCCCCCCCCCCCCCCC(=O)*

How the values were obtained:
Type in all cases: cell-based
[1] = tested on: Normal Human Dermal Fibroblasts (NHDF); assay: Survival estimated on cell layer using fluorescent probe Hoescht 33258; conditions: for cell proliferation / number of cells: after 3 days of culture
Protocol: (§1) Normal Human Dermal Fibroblasts (NHDF) were cultivated in culture plates in an appropriate culture medium (i.e. complete DMEM with fetal calf serum). After cell anchorage, cell layers (n=5 replicates) were rinsed with saline buffer and contact with molecules to be tested were performed in a complete DMEM without fetal calf serum. This medium contained ascorbate (sodium salt) and beta-aminopropionitrile, monofumarate. Two independent experimentations were performed for each di-peptide.
(§2) After 3 days of incubation, supernatants were collected and frozen. Survival was estimated on cell layer using the fluorescent probe Hoescht 33258. Collagen I was estimated using an original direct ELISA method. Fibronectin was estimated using ELISA commercial kit.

[2] = tested on: Normal Human Dermal Fibroblasts (NHDF); assay: Quantification of Fibronectin synthesis using human dermal fibroblasts (ELISA commercial kit); conditions: 3 days of incubation
Protocol: (§3) Products were tested from 0.5 to 4 ppm depending of their solubility or toxicity. Pal-KTTKS was tested from 2 to 8 ppm.
(§4) Pal KTTKS (Lys-Thr-Thr-Lys-Ser), Pal KT (Lys-Thr), Pal KS (Lys-Ser) were prepared in Sederma Peptide Synthesis Laboratory. TGF-betal: 10^E-6%, was the positive control for collagen I and Fibronectin studies.
(§5) For this study, di-peptides were linked to the Palmitoic acid and were compared to Pal-KTTKS.
as §1, §2
(§6) Criteria: TGF-b1 should be promoter of Collagen I and Fibronectin synthesis. Statistical analysis were performed on Collagen I data (n=5/assay) or Fibronectin data (n=5/assay). Results obtained with molecules were compared to negative control. All data were ng/10^E6 cells. A Student t test for non paired values was used; significativity was obtained if p<0.05 or p<0.01.
(§7) The percents in the tables above were calculated from ng/10E6 data and compared to the negative control.

[3] = tested on: Normal Human Dermal Fibroblasts (NHDF); assay: Quantification of Collagen I synthesis using human dermal fibroblasts (direct ELISA); conditions: 3 days of incubation
Protocol: as §3, §4, §5, §1, §2, §6, §7

## CCCCCCCCCCCCCCCC(=O)N[C@@H](CCCCN)C(=O)N[C@@H](CO)C(=O)O [Pal KS]
[1]; 4 ppm
  toxicity on the cell layer: seemed to induce a light toxicity

## Pal KTTKS: Palmitoyl Lys-Thr-Thr-Lys-Ser, considered as a benchmark (Palmitoyl-KTTKS)
[2]; 2 ppm
  FIBRONECTIN Mean, percent of negative control: +20%
[2]; 2 ppm, listed as Pal KTRKS
  FIBRONECTIN Mean, percent of negative control: probably active
[1]
  cell proliferation / number of cells: unchanged
[3]; 2 ppm
  COLLAGEN I Mean, percent of negative control: +5%
[3]; 4 ppm
  COLLAGEN I Mean, percent of negative control: +49%
[3]; 4 ppm, listed as Pal-KTTKS
  COLLAGEN I Mean, percent of negative control: +49%
[3]; 6 ppm
  COLLAGEN I Mean, percent of negative control: +111%
[3]; 6 ppm, listed as Pal-KTTKS
  COLLAGEN I Mean, percent of negative control: +111%
[3]; 8 ppm
  COLLAGEN I Mean, percent of negative control: +144%
[3]; 8 ppm, listed as Pal-KTTKS
  COLLAGEN I Mean, percent of negative control: +144%

## Pal-Lys-Thr-OH [Pal KT]
[3]; 1 ppm
  COLLAGEN I Mean, percent of negative control: +21%

## TGF-beta: positive control for collagen I and Fibronectin studies
[2]; 10 ppb
  FIBRONECTIN Mean, percent of negative control: +69%
[2]; 10 ppb, listed as TGF-b1
  FIBRONECTIN Mean, percent of negative control: 69%
[1]
  cell proliferation / number of cells: significant increase of cell proliferation
[3]; 10 ppb
  COLLAGEN I Mean, percent of negative control: +95%
[3]; 10 ppb, listed as TGF-b1
  COLLAGEN I Mean, percent of negative control: 95%
